Assay results published in PMC8041284, “Tunable Methacrylamides for Covalent Ligand Directed Release Chemistry” (Journal of the American Chemical Society, 2021).
*1 amine or outer side, *2 acyl side, *3 side chain or, on linkers, in order; H or OH if unused. Where a SMILES comes first, the peptide text is derived from it. Bridges are numbered along the chain shown (N, C = ends). Roman numbers before positions name the chains, in order. [ ]: non-standard residue; d: D form. Hexamethylenediamine = C(CCCN[*:2])CCN[*:1]; Dip = N[C@H](C(=O)O)C(c1ccccc1)c1ccccc1; Chg = N[C@H](C(=O)O)C1CCCCC1; NMeA = CN[C@@H](C)C(=O)O

Each molecule was assayed against BTK (Homo sapiens, UniProt Q06187) (assay: biochemical). Conditions: read-out: BTK inhibition (%).
Chain of BTK (Q06187 402-655 limits assumed): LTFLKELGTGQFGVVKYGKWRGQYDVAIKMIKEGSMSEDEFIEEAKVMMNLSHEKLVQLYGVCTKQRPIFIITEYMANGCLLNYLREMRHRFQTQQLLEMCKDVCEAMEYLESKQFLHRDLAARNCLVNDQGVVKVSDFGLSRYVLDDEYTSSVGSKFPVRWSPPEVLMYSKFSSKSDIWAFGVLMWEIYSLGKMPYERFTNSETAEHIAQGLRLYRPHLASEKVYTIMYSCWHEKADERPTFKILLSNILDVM

SMILES	inhibition at 10 µM [%]
C[C@H]1CC(=O)C[C@@H]2CC[C@H]3[C@@H]4CC[C@H](O)[C@@]4(C)CC[C@@H]3[C@]21C [PCM-0214988]	-20.2

Same assay, conditions: read-out: BTK inhibition (%), 0.75 uM BTK, […] probe 3l, 15 min preincubation

SMILES	inhibition at 10 µM [%]
O=S(=O)(O)Oc1ccc(C(c2ccc(OS(=O)(=O)O)cc2)c2ccccn2)cc1 [PCM-0095575]	-12.5
CC[C@H](Nc1ncnc2nc[nH]c12)c1nc2cccc(F)c2c(=O)n1-c1ccccc1 [PCM-0095266]	-5.5
NS(=O)(=O)c1ccc(NC(=O)Nc2ccc(F)cc2)cc1 [PCM-0095531]	-15.6
Cc1ncc([N+](=O)[O-])n1C [PCM-0216192]	-21.4
O=c1[nH]c(=O)n([C@H]2C[C@H](O)[C@@H](CO)O2)cc1I [PCM-0085786]	-27.2
CSc1ccc(C(=O)/C=C/c2cc(C)c(OC(C)(C)C(=O)O)c(C)c2)cc1 [PCM-0214917]	7
O=C(NCc1ccc(Oc2ccccc2)cc1)c1nc(-c2cc(Br)c(O)c(Br)c2)no1 [PCM-0215261]	94.2
O=C(O)/C=C/c1ccc(O)cc1 [PCM-0214939]	-21.8
COC(=O)c1ccc2c(c1)nc(NC(=O)c1ccccc1)n2CCCc1ccccc1 [PCM-0215403]	0
COc1ccc2c(c1O)-c1c(O)c(OC)cc3c1[C@H](C2)[N+](C)(C)CC3 [PCM-0216382]	-1.5
O=C1C[C@@H](c2ccc(O)c(O)c2)Oc2cc(O)cc(O)c21 [PCM-0216409]	29.3
CN[C@@H](C)C(=O)N[C@H](C(=O)N1CCC[C@H]1C(=O)N[C@H](C(=O)NCCCCCCNC(=O)[C@@H](NC(=O)[C@@H]1CCCN1C(=O)[C@@H](NC(=O)[C@H](C)NC)C1CCCCC1)C(c1ccccc1)c1ccccc1)C(c1ccccc1)c1ccccc1)C1CCCCC1 [PCM-0214574] (I: H-[NMeA][Chg]P[Dip] / II: H-[NMeA][Chg]P[Dip]; linker I:C-II:C via Hexamethylenediamine)	-1.5
COc1cccc2c1c(O)c(C(=O)N(C)c1ccc(C(F)(F)F)cc1)c(=O)n2C [PCM-0215368]	-27.8
CN[C@@H](C)C(=O)N[C@H](C(=O)N1CCC[C@H]1C(=O)N[C@H]1c2ccccc2C[C@H]1OCC#CC#CCO[C@@H]1Cc2ccccc2[C@@H]1NC(=O)[C@@H]1CCCN1C(=O)[C@@H](NC(=O)[C@H](C)NC)C1CCCCC1)C1CCCCC1 [PCM-0215824]	2.6
COc1cc(CCC(=O)CC(=O)CCc2ccc(O)c(OC)c2)ccc1O [PCM-0216226]	-7
N#Cc1ccc(-c2csc(NN=C3CCCC3)n2)cc1 [PCM-0215381]	43.2
CN(C(=O)CNC(=O)/C=C/c1cccc(Cl)c1)C1CCS(=O)(=O)CC1 [PCM-0215630]	-13.9
CC1(C)CC[C@]2(C(=O)O)[C@H](O)C[C@]3(C)C(=CC[C@@H]4[C@@]5(C)CC[C@H](O)[C@@](C)(C=O)[C@@H]5CC[C@]43C)[C@@H]2C1 [PCM-0216608]	-8.5
Nc1nc2c(ncn2COCCO)c(=O)[nH]1 [PCM-0064530]	-15.6
CN[C@@H](C)C(=O)N[C@H](C(=O)N1CCC[C@H]1c1nc(C(=O)c2ccc(F)cc2)cs1)C1CCCCC1 [PCM-0215366]	-11.6
O=C(O)CC1CC(c2ccccc2)=NO1 (stereo not drawn) [PCM-0215292]	-2.1
C[C@]12CCC3=C4CCC(=O)C=C4CC[C@H]3[C@@H]1CC[C@@]2(O)CC#N [PCM-0095005]	-11.7
CCCCOc1nc(N)c2c(n1)N(Cc1cccc(CN3CCCC3)c1)CC(=O)N2 [PCM-0215695]	17

SMILES	inhibition at 10 µM [%]
CN(C)[C@@H]1C(=O)C(C(N)=O)=C(O)[C@@]2(O)C(=O)C3=C(O)c4c(O)ccc(Cl)c4[C@@](C)(O)[C@H]3C[C@@H]12 [PCM-0215204]	10.2
C[C@H]1[C@H](C)CC[C@]2(C(=O)O[C@@H]3O[C@H](CO[C@@H]4O[C@H](CO)[C@@H](O[C@@H]5O[C@@H](C)[C@H](O)[C@@H](O)[C@H]5O)[C@H](O)[C@H]4O)[C@@H](O)[C@H](O)[C@H]3O)CC[C@]3(C)C(=CC[C@@H]4[C@@]5(C)C[C@@H](O)[C@H](O)[C@@](C)(CO)[C@@H]5CC[C@]43C)[C@H]12 [PCM-0214874]	-15.9
CCCC(CCC)C(N)=O [PCM-0215111]	19.3
C=CC(=O)Nc1cccc(Oc2nc(Nc3ccc(N4CCN(C)CC4)cc3OC)ncc2Cl)c1 [PCM-0095043]	89
CC1=C(CC(=O)O)c2cc(F)ccc2/C1=C\c1ccc([S+](C)[O-])cc1 (stereo not drawn) [PCM-0065451]	8.3
CC(=O)Oc1cc(C)c(OC(C)=O)c2ccccc12 [PCM-0215056]	-25.7
CCCCCCCCCC[C@H](C(=O)O)[C@]1(C(=O)O)CCC(=O)O1 [PCM-0215979]	17.8
O=C(Nc1cccc(C(F)(F)F)c1)Nc1cc(S(=O)(=O)NC2CC2)ccc1-c1ccsc1 [PCM-0095800]	27
Cc1ccc(=O)n(-c2ccccc2)c1 [PCM-0064803]	20.7
Cc1ncc(NC(=O)c2cccc(C(F)(F)F)c2)cc1-c1cnc(OC2CCOCC2)c(N2CCOCC2)c1 [PCM-0216049]	-13.1
CCN(CC)CCOC(=O)C(c1ccccc1)c1ccccc1 [PCM-0085916]	-7.8
COc1ccc2cc(C(=O)O)ccc2c1 [PCM-0216054]	-9.3
Cc1cc(C)cc(Oc2ccc(CNC(=O)[C@H](C)N)cc2C)c1 [PCM-0215829]	-17.8
C=CCc1cc(OC)c(O)c(C(=O)NCCO)c1 [PCM-0095214]	-16.3
C1=C/COCc2cc(ccc2OCCN2CCCC2)Nc2nccc(n2)-c2cccc(c2)COC/1 [PCM-0215268]	71.7
O=c1c(-c2ccc(O)cc2)coc2cc(O)cc(O)c12 [PCM-0065176]	16.6
COc1cc(-c2oc3cc(O)cc(O)c3c(=O)c2O[C@@H]2O[C@H](CO[C@@H]3O[C@@H](C)[C@H](O)[C@@H](O)[C@H]3O)[C@@H](O)[C@H](O)[C@H]2O[C@@H]2O[C@@H](C)[C@H](O)[C@@H](O)[C@H]2O)ccc1O [PCM-0216372]	7.7
CCCCCCCCOC(=O)c1cc(O)c(O)c(O)c1 [PCM-0216629]	3.9
CCO[C@@H]1OC(=O)C[C@@H]1NC(=O)[C@@H]1CCCN1C(=O)[C@@H](NC(=O)c1ccc(N)c(Cl)c1)C(C)(C)C [PCM-0214671]	-8.6
O=C(O)c1cc(=O)c2c(OCC(O)COc3cccc4oc(C(=O)O)cc(=O)c34)cccc2o1 [PCM-0086401]	2.6
Cc1cc(SCc2sc(-c3ccc(C(F)(F)F)cc3)nc2C)ccc1OCC(=O)O [PCM-0215226]	23.9
NC(=O)c1ccc(N(C(N)=O)c2c(F)cccc2F)nc1-c1ccc(F)cc1F [PCM-0095567]	-32.4
CN1CCN(C2CCN(C(=O)Nc3cc(Oc4ccc(NC(=O)C5(C(=O)Nc6ccc(F)cc6)CC5)c(F)c4)ccn3)CC2)CC1 [PCM-0095502]	17.2

SMILES	inhibition at 10 µM [%]
c1nc2nc(Nc3ccc(N4CCOCC4)cc3)nc(NC3CCCCC3)c2[nH]1 [PCM-0215406]	101
CC(C)(O)[C@H]1CC[C@@](C)([C@H]2[C@@H](O)C[C@@]3(C)[C@@H]4C[C@H](O)[C@H]5C(C)(C)[C@@H](O)CC[C@@]56C[C@@]46CC[C@]23C)O1 [PCM-0215043]	-14.8
COc1cc([C@H]2Oc3cc([C@H]4Oc5cc(O)cc(O)c5C(=O)[C@@H]4O)ccc3O[C@@H]2CO)ccc1O [PCM-0088703]	24.1
CC1(C)[C@@H](OC(=O)CCC(=O)O)CC[C@]2(C)[C@H]3C(=O)C=C4[C@@H]5C[C@@](C)(C(=O)O)CC[C@]5(C)CC[C@@]4(C)[C@]3(C)CC[C@@H]12 [PCM-0215252]	26.5
CC(C)(C)NC(=O)N[C@H](C(=O)N1C[C@H]2[C@@H]([C@H]1C(=O)NC(CC1CCC1)C(=O)C(N)=O)C2(C)C)C(C)(C)C (stereo partly drawn) [PCM-0214929]	8.6
CCN(CC)C(=S)SSC(=S)N(CC)CC [PCM-0064895]	-5.5
CCCC[N+]1(C)[C@@H]2CC(OC(=O)[C@H](CO)c3ccccc3)C[C@H]1[C@@H]1O[C@@H]12 (stereo partly drawn) [PCM-0086491]	-17.9
CCOC(=O)/C=C/c1ccc(OC)cc1 [PCM-0216286]	-3.1
CC(C)(C)c1[nH]cnc1/C=c1\[nH]c(=O)/c(=C/c2ccccc2)[nH]c1=O [PCM-0095681]	-2.1
Cn1nnc(-c2ccc(-c3ccc(N4C[C@H](COP(=O)(O)O)OC4=O)cc3F)cn2)n1 [PCM-0214830]	13.2
COc1cc2c(cc1OC)CC(=O)N(CCCN(C)C[C@H]1Cc3cc(OC)c(OC)cc31)CC2 [PCM-0095255]	-3.1
COc1ccc([C@@H]2Sc3ccccc3N(CCN(C)C)C(=O)[C@@H]2OC(C)=O)cc1 [PCM-0065036]	17.1
N[C@@H]1CCCN(c2c(/C=C3\SC(=O)NC3=O)cccc2-c2ccccc2)C1 [PCM-0095732]	4.1
C[C@]12CC[C@@H]3c4ccc(O)cc4CC[C@H]3[C@@H]1CC[C@@H]2OC(=O)CCC1CCCC1 [PCM-0214748]	0.8
N[C@@H](CO)C(=O)O [PCM-0216618]	4.3
CN(C)CCOc1ccc(/C(=C(/CCCl)c2ccccc2)c2ccccc2)cc1 [PCM-0086582]	4.1
CCNC(=O)[C@@H]1CCCN1C(=O)[C@H](CCCN=C(N)N)NC(=O)[C@H](CC(C)C)NC(=O)[C@@H](C)NC(=O)[C@H](Cc1ccc(O)cc1)NC(=O)[C@H](CO)NC(=O)[C@H](Cc1c[nH]c2ccccc12)NC(=O)[C@H](Cc1cnc[nH]1)NC(=O)C1CCC(=O)N1 (stereo partly drawn) [PCM-0216272]	23.8
CC12CCC(CC1=O)C2(C)C (stereo not drawn) [PCM-0214819]	-3.9
Nc1cccc(S(=O)(=O)N2CCCN(S(=O)(=O)c3ccc4c(c3)OCCO4)CC2)c1 [PCM-0215556]	-2.8
CC(C)c1noc(N2CCC(COc3ccc(-c4ccc(S(C)(=O)=O)cc4)nc3)CC2)n1 [PCM-0095313]	-14
OC[C@H]1O[C@@H](O[C@@H]2OC=C[C@H]3[C@H](O)[C@@H]4O[C@]4(CO)[C@@H]23)[C@H](O)[C@@H](O)[C@@H]1O [PCM-0215028]	26.2
CC(=O)N[C@@H](CC(=O)O)C(=O)N[C@@H](CCC(=O)O)C(=O)N[C@H](C(=O)N[C@H](C=O)CC(=O)O)C(C)C [PCM-0215827]	-7.7
